According to PMC7345083, “Vancomycin-Lipopeptide Conjugates with High Antimicrobial Activity on Vancomycin-Resistant Enterococci” (Pharmaceuticals, 2020):
Converted amounts (≈) assume the structure as drawn.

Tested on: Enterococcus faecium UL602570 (vanA, clinical isolate)
Assay type: cell-based
Settings: UL602570 (vanA, clinical isolate, 18 h)
Method: The minimum inhibitory concentration (MIC) was determined by microdilution following the EUCAST and CLSI guidelines via the broth microdilution assay on a 96-well plate. Substances were dissolved in saline solution (0.9%) at a concentration equimolar to 1.28 mg/mL vancomycin. With an increasing hydrophobicity, some substances had to be pre-dissolved in DMSO. The final concentration of DMSO remained below 1.5% and was compared to the DMSO control (no antimicrobial effect was observed up to the highest concentration tested (10%)). All substances were serially diluted on the 96-well plate using Mueller-Hinton-Broth II (cation adjusted). Vancomycin was always used as a control. For bacterial loading, an overnight culture of the referring strain was taken and adjusted to a turbidity corresponding to 10^8 cfu/mL. The bacterial suspension was further diluted to load a bacterial number of 10^6 cfu/mL on the 96-well plate and incubate it for 18 h at 35 ± 1 °C, as described before. MIC was defined as the lowest concentration without visible growth.

Row | Structure (SMILES) | MIC median | MIC range
1 | CCCCCC(=O)N[C@@H](CCCNC(=N)N)C(=O)N[C@@H](CCCNC(=N)N)C(=O)N[C@@H](CCCNC(=N)N)C(=O)N[C@@H](CSC1CC(=O)N(CC2CCC(C(=O)NCCNC(=O)[C@H]3NC(=O)[C@H]4NC(=O)[C@H](NC(=O)[C@@H]5NC(=O)[C@H](CC(N)=O)NC(=O)[C@H](NC(=O)[C@@H](CC(C)C)NC)[C@H](O)c6ccc(c(Cl)c6)Oc6cc5cc(c6O[C@@H]5O[C@H](CO)[C@@H](O)[C@H](O)[C@H]5O[C@H]5C[C@](C)(N)[C@H](O)[C@H](C)O5)Oc5ccc(cc5Cl)[C@H]4O)c4ccc(O)c(c4)-c4c(O)cc(O)cc43)CC2)C1=O)C(N)=O (stereo partly shown) [VC-R3C-C6] | 106.00 µg/mL (≈ 44.2 µM) | –
2 | CCCCCCCC(=O)N[C@@H](CCCNC(=N)N)C(=O)N[C@@H](CCCNC(=N)N)C(=O)N[C@@H](CCCNC(=N)N)C(=O)N[C@@H](CSC1CC(=O)N(CC2CCC(C(=O)NCCNC(=O)[C@H]3NC(=O)[C@H]4NC(=O)[C@H](NC(=O)[C@@H]5NC(=O)[C@H](CC(N)=O)NC(=O)[C@H](NC(=O)[C@@H](CC(C)C)NC)[C@H](O)c6ccc(c(Cl)c6)Oc6cc5cc(c6O[C@@H]5O[C@H](CO)[C@@H](O)[C@H](O)[C@H]5O[C@H]5C[C@](C)(N)[C@H](O)[C@H](C)O5)Oc5ccc(cc5Cl)[C@H]4O)c4ccc(O)c(c4)-c4c(O)cc(O)cc43)CC2)C1=O)C(N)=O (stereo partly shown) [VC-R3C-C8] | 9.54 µg/mL (≈ 3.93 µM) | 9.54 to 19.08 µg/mL
3 | CCCCCCCCCC(=O)N[C@@H](CCCNC(=N)N)C(=O)N[C@@H](CCCNC(=N)N)C(=O)N[C@@H](CCCNC(=N)N)C(=O)N[C@@H](CSC1CC(=O)N(CC2CCC(C(=O)NCCNC(=O)[C@H]3NC(=O)[C@H]4NC(=O)[C@H](NC(=O)[C@@H]5NC(=O)[C@H](CC(N)=O)NC(=O)[C@H](NC(=O)[C@@H](CC(C)C)NC)[C@H](O)c6ccc(c(Cl)c6)Oc6cc5cc(c6O[C@@H]5O[C@H](CO)[C@@H](O)[C@H](O)[C@H]5O[C@H]5C[C@](C)(N)[C@H](O)[C@H](C)O5)Oc5ccc(cc5Cl)[C@H]4O)c4ccc(O)c(c4)-c4c(O)cc(O)cc43)CC2)C1=O)C(N)=O (stereo partly shown) [VC-R3C-C10] | 4.77 µg/mL (≈ 1.94 µM) | 4.77 to 9.53 µg/mL
4 | CCCCCCCCCCCCCC(=O)N[C@@H](CCCNC(=N)N)C(=O)N[C@@H](CCCNC(=N)N)C(=O)N[C@@H](CCCNC(=N)N)C(=O)N[C@@H](CSC1CC(=O)N(CC2CCC(C(=O)NCCNC(=O)[C@H]3NC(=O)[C@H]4NC(=O)[C@H](NC(=O)[C@@H]5NC(=O)[C@H](CC(N)=O)NC(=O)[C@H](NC(=O)[C@@H](CC(C)C)NC)[C@H](O)c6ccc(c(Cl)c6)Oc6cc5cc(c6O[C@@H]5O[C@H](CO)[C@@H](O)[C@H](O)[C@H]5O[C@H]5C[C@](C)(N)[C@H](O)[C@H](C)O5)Oc5ccc(cc5Cl)[C@H]4O)c4ccc(O)c(c4)-c4c(O)cc(O)cc43)CC2)C1=O)C(N)=O (stereo partly shown) [VC-R3C-C14] | 2.45 µg/mL (≈ 0.976 µM) | 2.45 to 4.91 µg/mL
5 | CCCCCCCCCCCCCCCC(=O)N[C@@H](CCCNC(=N)N)C(=O)N[C@@H](CCCNC(=N)N)C(=O)N[C@@H](CCCNC(=N)N)C(=O)N[C@@H](CSC1CC(=O)N(CC2CCC(C(=O)NCCNC(=O)[C@H]3NC(=O)[C@H]4NC(=O)[C@H](NC(=O)[C@@H]5NC(=O)[C@H](CC(N)=O)NC(=O)[C@H](NC(=O)[C@@H](CC(C)C)NC)[C@H](O)c6ccc(c(Cl)c6)Oc6cc5cc(c6O[C@@H]5O[C@H](CO)[C@@H](O)[C@H](O)[C@H]5O[C@H]5C[C@](C)(N)[C@H](O)[C@H](C)O5)Oc5ccc(cc5Cl)[C@H]4O)c4ccc(O)c(c4)-c4c(O)cc(O)cc43)CC2)C1=O)C(N)=O (stereo partly shown) [VC-R3C-C16] | 5.00 µg/mL (≈ 1.97 µM) | 5.00 to 10.00 µg/mL
6 | CCCCCCCCCCCCCCCCCC(=O)N[C@@H](CCCNC(=N)N)C(=O)N[C@@H](CCCNC(=N)N)C(=O)N[C@@H](CCCNC(=N)N)C(=O)N[C@@H](CSC1CC(=O)N(CC2CCC(C(=O)NCCNC(=O)[C@H]3NC(=O)[C@H]4NC(=O)[C@H](NC(=O)[C@@H]5NC(=O)[C@H](CC(N)=O)NC(=O)[C@H](NC(=O)[C@@H](CC(C)C)NC)[C@H](O)c6ccc(c(Cl)c6)Oc6cc5cc(c6O[C@@H]5O[C@H](CO)[C@@H](O)[C@H](O)[C@H]5O[C@H]5C[C@](C)(N)[C@H](O)[C@H](C)O5)Oc5ccc(cc5Cl)[C@H]4O)c4ccc(O)c(c4)-c4c(O)cc(O)cc43)CC2)C1=O)C(N)=O (stereo partly shown) [VC-R3C-C18] | 10.17 µg/mL (≈ 3.96 µM) | 5.08 to 10.17 µg/mL
7 | CN[C@H](CC(C)C)C(=O)N[C@H]1C(=O)N[C@@H](CC(N)=O)C(=O)N[C@H]2C(=O)N[C@H]3C(=O)N[C@H](C(=O)N[C@H](C(=O)NCCNC(=O)C4CCC(CN5C(=O)CC(SC[C@H](NC(=O)[C@H](CCCNC(=N)N)NC(=O)[C@H](CCCNC(=N)N)NC(=O)[C@@H](N)CCCNC(=N)N)C(N)=O)C5=O)CC4)c4cc(O)cc(O)c4-c4cc3ccc4O)[C@H](O)c3ccc(c(Cl)c3)Oc3cc2cc(c3O[C@@H]2O[C@H](CO)[C@@H](O)[C@H](O)[C@H]2O[C@H]2C[C@](C)(N)[C@H](O)[C@H](C)O2)Oc2ccc(cc2Cl)[C@H]1O (stereo partly shown) [VC-R3C] | 34.75 µg/mL (≈ 15.1 µM) | 17.38 to 34.75 µg/mL
8 | CCCCCC(=O)N[C@@H](CCCNC(=N)N)C(=O)N[C@@H](CCCNC(=N)N)C(=O)N[C@@H](CCCNC(=N)N)C(=O)N[C@@H](CSC1CC(=O)N(CC2CCC(C(=O)N(C)[C@H](CC(C)C)C(=O)N[C@H]3C(=O)N[C@@H](CC(N)=O)C(=O)N[C@H]4C(=O)N[C@H]5C(=O)N[C@H](C(=O)N[C@H](C(=O)O)c6cc(O)cc(O)c6-c6cc5ccc6O)[C@H](O)c5ccc(c(Cl)c5)Oc5cc4cc(c5O[C@@H]4O[C@H](CO)[C@@H](O)[C@H](O)[C@H]4O[C@H]4C[C@](C)(N)[C@H](O)[C@H](C)O4)Oc4ccc(cc4Cl)[C@H]3O)CC2)C1=O)C(N)=O (stereo partly shown) [VN-R3C-C6] | 72.00 µg/mL (≈ 30.6 µM) | 36.00 to 72.00 µg/mL
9 | CCCCCCCC(=O)N[C@@H](CCCNC(=N)N)C(=O)N[C@@H](CCCNC(=N)N)C(=O)N[C@@H](CCCNC(=N)N)C(=O)N[C@@H](CSC1CC(=O)N(CC2CCC(C(=O)N(C)[C@H](CC(C)C)C(=O)N[C@H]3C(=O)N[C@@H](CC(N)=O)C(=O)N[C@H]4C(=O)N[C@H]5C(=O)N[C@H](C(=O)N[C@H](C(=O)O)c6cc(O)cc(O)c6-c6cc5ccc6O)[C@H](O)c5ccc(c(Cl)c5)Oc5cc4cc(c5O[C@@H]4O[C@H](CO)[C@@H](O)[C@H](O)[C@H]4O[C@H]4C[C@](C)(N)[C@H](O)[C@H](C)O4)Oc4ccc(cc4Cl)[C@H]3O)CC2)C1=O)C(N)=O (stereo partly shown) [VN-R3C-C8] | 18.31 µg/mL (≈ 7.68 µM) | 9.16 to 18.31 µg/mL
10 | CCCCCCCCCC(=O)N[C@@H](CCCNC(=N)N)C(=O)N[C@@H](CCCNC(=N)N)C(=O)N[C@@H](CCCNC(=N)N)C(=O)N[C@@H](CSC1CC(=O)N(CC2CCC(C(=O)N(C)[C@H](CC(C)C)C(=O)N[C@H]3C(=O)N[C@@H](CC(N)=O)C(=O)N[C@H]4C(=O)N[C@H]5C(=O)N[C@H](C(=O)N[C@H](C(=O)O)c6cc(O)cc(O)c6-c6cc5ccc6O)[C@H](O)c5ccc(c(Cl)c5)Oc5cc4cc(c5O[C@@H]4O[C@H](CO)[C@@H](O)[C@H](O)[C@H]4O[C@H]4C[C@](C)(N)[C@H](O)[C@H](C)O4)Oc4ccc(cc4Cl)[C@H]3O)CC2)C1=O)C(N)=O (stereo partly shown) [VN-R3C-C10] | 4.66 µg/mL (≈ 1.93 µM) | 4.66 to 9.31 µg/mL
